# Experimental data from ChEMBL document CHEMBL4765331, “Amides of pyrrole- and thiophene-fused anthraquinone derivatives: A role of the heterocyclic core in antitumor properties” (Eur J Med Chem, 2020).
# Active and inactive are the calls of the source. No cut-off for these calls is given here.
# Experiments:
# [1] = Selectivity index, ratio of IC50 for human TERT-RPE1 cells to IC50 for human HL-60 cells; type: toxicity; settings: TERT-RPE1 cells and HL-60 cells, read-out: Ratio IC50
# [2] = tested on: TERT-RPE1; assay: Cytotoxicity against human TERT-RPE1 cells assessed as inhibition of cell proliferation measured after 72 hrs by MTT assay; type: cell-based; settings: RPE-1, 72 h
# [3] = Antiproliferative activity against P-gp-positive/doxorubicin-resistant human K562/4 cells assessed as inhibition of cell proliferation measured after 72 hrs by MTT assay; type: functional; settings: K562/4, 72 h
# [4] = tested on: K562; assay: Induction of cell cycle arrest in human K562 cells assessed as accumulation at G2/M phase at 2XIC50 measured after 48 hrs by propidium iodide/RNase staining based flow cytometry; type: functional
# [5] = tested on: K562; assay: Induction of oxidative stress in human K562 cells assessed as increase in intracellular ROS generation at 1.6 uM measured after 40 mins by Deep Red dye based flow cytometry method; type: functional, cell-based
# [6] = tested on: K562; assay: Antiproliferative activity against human K562 cells assessed as inhibition of cell proliferation measured after 72 hrs by MTT assay; type: functional, cell-based; settings: K562, 72 h
# [7] = tested on: Calf thymus DNA; assay: Binding affinity to calf thymus DNA assessed as dissociation constant by scatchard plot analysis; design: species or system Bos taurus
# [8] = tested on: NCI-H460; assay: Antiproliferative activity against human NCI-H460 cells assessed as inhibition of cell proliferation measured after 72 hrs by MTT assay; type: functional, cell-based; settings: NCI-H460, 72 h
# [9] = tested on: CAPAN-1; assay: Antiproliferative activity against human CAPAN-1 cells assessed as inhibition of cell proliferation measured after 72 hrs by MTT assay; type: functional, cell-based; settings: CAPAN-1, 72 h
# [10] = Selectivity index, ratio of IC50 for human TERT-RPE1 cells to IC50 for human CAPAN-1 cells
# [11] = tested on: K562; assay: Induction of apoptosis in human K562 cells assessed as viable cells at 1.6 uM measured after 48 hrs by Annexin V-APC/PI staining based flow cytometry assay (reference value: 85.9%); type: functional; settings: read-out: Activity
# [12] = tested on: K562; assay: Induction of apoptosis in human K562 cells assessed as early apoptotic cells at 1.6 uM measured after 48 hrs by Annexin V-APC/PI staining based flow cytometry assay (reference value: 3.4%); type: functional
# [13] = tested on: K562; assay: Induction of apoptosis in human K562 cells assessed as necrotic cells at 1.6 uM measured after 24 hrs by Annexin V-APC/PI staining based flow cytometry assay (reference value: 3.9%); type: functional
# [14] = Selectivity index, ratio of IC50 for human TERT-RPE1 cells to IC50 for human K562 cells; type: toxicity; settings: TERT-RPE1 cells and K562 cells, read-out: Ratio IC50
# [15] = Selectivity index, ratio of IC50 for human TERT-RPE1 cells to IC50 for human NCI-H460 cells; type: toxicity; settings: TERT-RPE1 cells and NCI-H460 cells, read-out: Ratio IC50
# [16] = Selectivity index, ratio of IC50 for human TERT-RPE1 cells to IC50 for human HCT-116 cells; type: toxicity; settings: TERT-RPE1 cells and HCT-116 cells, read-out: Ratio IC50
# [17] = tested on: HCT-116; assay: Antiproliferative activity against human HCT-116 cells with inactivated p53 gene assessed as inhibition of cell proliferation measured after 72 hrs by MTT assay; type: functional, cell-based; settings: HCT-116, 72 h
# [18] = tested on: K562; assay: Induction of apoptosis in human K562 cells assessed as late apoptotic cells at 1.6 uM measured after 48 hrs by Annexin V-APC/PI staining based flow cytometry assay (reference value: […]); type: functional
# [19] = tested on: Calf thymus DNA; assay: Binding affinity to calf thymus double stranded DNA at 10 uM measured after 5 mins by flourescence spectroscopy method; settings: Bos taurus
# [20] = tested on: K562; assay: Induction of apoptosis in human K562 cells assessed as late apoptotic cells at 1.6 uM measured after 24 hrs by Annexin V-APC/PI staining based flow cytometry assay (reference value: […]); type: functional
# [21] = tested on: HCT-116; assay: Antiproliferative activity against human HCT-116 cells assessed as inhibition of cell proliferation measured after 72 hrs by MTT assay; type: functional, cell-based; settings: HCT-116, 72 h
# [22] = tested on: Calf thymus DNA; assay: Binding affinity to calf thymus DNA assessed as DNA intercalation by measuring decrease of negative DNA band at 245 nm at 50 uM by circular dichroism spectral analysis; type: tissue-based; settings: Bos taurus
# [23] = Toxicity in ip dosed BDF1 mouse xenografted with mouse P388 cells administered qd for 5 days; type: organism-based; settings: in vivo, time 5 day
# [24] = Drug uptake in human K562i/S9 cells harboring exogenously expressed MDR1/Pgp; type: ADME, cell-based
# [25] = molecular target: T1, DNA topoisomerase 1 (Homo sapiens) (UniProt P11387); assay: Inhibition of human topoisomerase 1-mediated relaxation of supercoiled plasmid using pBR322 plasmid as substrate at 40 uM measured after 30 mins by ethidium bromide dye based agarose gel electrophoresis method
# T1 sequence (whole entry): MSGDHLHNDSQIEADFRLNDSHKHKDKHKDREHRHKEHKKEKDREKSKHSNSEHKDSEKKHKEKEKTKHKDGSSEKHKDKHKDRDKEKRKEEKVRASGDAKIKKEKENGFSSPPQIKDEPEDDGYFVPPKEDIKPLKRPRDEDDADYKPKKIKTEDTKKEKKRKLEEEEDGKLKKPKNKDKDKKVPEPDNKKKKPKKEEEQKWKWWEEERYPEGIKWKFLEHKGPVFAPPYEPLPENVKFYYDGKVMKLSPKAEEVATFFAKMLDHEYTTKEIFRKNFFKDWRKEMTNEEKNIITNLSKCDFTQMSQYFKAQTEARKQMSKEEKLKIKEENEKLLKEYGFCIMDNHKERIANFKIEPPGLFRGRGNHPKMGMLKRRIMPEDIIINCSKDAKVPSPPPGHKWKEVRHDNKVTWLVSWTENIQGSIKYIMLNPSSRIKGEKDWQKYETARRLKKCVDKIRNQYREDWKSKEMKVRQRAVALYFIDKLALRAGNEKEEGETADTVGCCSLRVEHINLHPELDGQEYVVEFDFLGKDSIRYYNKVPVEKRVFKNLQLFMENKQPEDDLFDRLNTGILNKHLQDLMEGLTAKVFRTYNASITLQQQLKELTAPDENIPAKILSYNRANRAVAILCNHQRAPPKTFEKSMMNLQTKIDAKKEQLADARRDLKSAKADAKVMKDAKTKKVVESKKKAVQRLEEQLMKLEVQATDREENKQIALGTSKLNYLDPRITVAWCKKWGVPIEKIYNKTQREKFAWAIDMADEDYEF
# [26] = Drug uptake in P-gp-positive/doxorubicin-resistant human K562/4 cells; type: ADME
# [27] = tested on: Calf thymus DNA; assay: Binding affinity to calf thymus DNA assessed as binding constant by scatchard plot analysis; settings: Bos taurus
# [28] = tested on: Calf thymus DNA; assay: Binding affinity to calf thymus DNA assessed as stoichiometry ratio of compound-DNA complex formation by scatchard plot analysis; settings: Bos taurus
# [29] = tested on: K562; assay: Induction of apoptosis in human K562 cells assessed as early apoptotic cells at 1.6 uM measured after 24 hrs by Annexin V-APC/PI staining based flow cytometry assay (reference value: 3.4%); type: functional
# [30] = tested on: K562; assay: Induction of apoptosis in human K562 cells assessed as viable cells at 1.6 uM measured after 24 hrs by Annexin V-APC/PI staining based flow cytometry assay (reference value: 85.9%); type: functional; settings: read-out: Activity
# [31] = tested on: K562; assay: Induction of apoptosis in human K562 cells assessed as necrotic cells at 1.6 uM measured after 48 hrs by Annexin V-APC/PI staining based flow cytometry assay (reference value: 3.9%); type: functional
# [32] = tested on: HL-60; assay: Antiproliferative activity against human HL-60 cells assessed as inhibition of cell proliferation measured after 72 hrs by MTT assay; type: functional, cell-based; settings: HL-60, 72 h
# [33] = Resistance index, ratio of IC50 for human P-gp-positive/Doxorubicin-resistant K562/4 cells to IC50 for human K562 cells; type: functional
smiles,measurement,setting,value
N[C@H]1CCN(C(=O)c2coc3c(O)c4c(c(O)c23)C(=O)c2ccccc2C4=O)C1,selectivity ratio,[1],9
same,IC50,[2],11.1 µM
same,IC50,[3],1400 nM
same,Activity,[4],Active
same,Activity,[5],Active
same,IC50,[6],900 nM
same,Kd,[7],11 µM
same,IC50,[8],400 nM
same,IC50,[9],300 nM
same,Ratio IC50,[10],9
same,viability at 1.6 µM,[11],51.9%
same,Activity,[12],0.5%
same,Activity,[13],20.6%
same,selectivity ratio,[14],9
same,selectivity ratio,[15],9
same,selectivity ratio,[16],9
same,IC50,[17],1300 nM
same,Activity,[18],9.1%
same,Activity,[19],Active
same,Activity,[20],8.1%
same,IC50,[21],1200 nM
same,Activity,[22],Active
same,LD50 at 120 h,[23],52 mg/kg
same,Drug uptake,[24],Active
same,inhibition,[25],Active
same,Drug uptake,[26],Active
same,Kb,[27],0.9 10^5/M
same,Ratio,[28],2
same,Activity,[29],1.3%
same,viability at 1.6 µM,[30],70%
same,Activity,[31],38.6%
same,IC50,[32],500 nM
same,Ratio IC50,[33],1.5
